Source: ChEMBL document CHEMBL5291721, “A preclinical secondary pharmacology resource illuminates target-adverse drug reaction associations of marketed drugs” (Nat Commun, 2023)

Legend:
Bile salt export pump = Bile salt export pump (Homo sapiens, UniProt O95342); assay type: functional
[1] = target: Voltage-gated inwardly rectifying potassium channel KCNH2 (Homo sapiens, UniProt Q12809); assay type: functional; conditions: read-out: AC50
[2] = target: T1, 5-hydroxytryptamine receptor 3A (Homo sapiens, UniProt P46098); assay type: functional
T1 sequence (P46098 whole entry): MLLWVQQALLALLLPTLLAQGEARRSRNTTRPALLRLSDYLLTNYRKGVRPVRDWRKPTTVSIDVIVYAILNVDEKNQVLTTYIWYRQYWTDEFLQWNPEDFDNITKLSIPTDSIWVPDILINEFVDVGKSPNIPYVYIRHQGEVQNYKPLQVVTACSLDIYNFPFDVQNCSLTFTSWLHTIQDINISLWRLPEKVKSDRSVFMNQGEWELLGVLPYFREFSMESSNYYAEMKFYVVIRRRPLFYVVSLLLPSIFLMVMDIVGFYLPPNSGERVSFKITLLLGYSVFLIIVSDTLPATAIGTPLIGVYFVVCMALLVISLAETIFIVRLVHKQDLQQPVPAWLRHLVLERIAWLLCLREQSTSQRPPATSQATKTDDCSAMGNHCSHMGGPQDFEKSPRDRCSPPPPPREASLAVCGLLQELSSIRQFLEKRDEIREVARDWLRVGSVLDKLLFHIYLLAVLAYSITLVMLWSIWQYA

[3] = target: Delta-type opioid receptor (Homo sapiens, UniProt P41143)
[4] = target: 5-hydroxytryptamine receptor 2B (Homo sapiens, UniProt P41595); assay type: functional, cell-based
[5] = target: Sodium-dependent dopamine transporter (Homo sapiens, UniProt Q01959)
[6] = target: T2, Muscarinic acetylcholine receptor M2 (Homo sapiens, UniProt P08172); assay type: functional, cell-based
T2 sequence (P08172 whole entry): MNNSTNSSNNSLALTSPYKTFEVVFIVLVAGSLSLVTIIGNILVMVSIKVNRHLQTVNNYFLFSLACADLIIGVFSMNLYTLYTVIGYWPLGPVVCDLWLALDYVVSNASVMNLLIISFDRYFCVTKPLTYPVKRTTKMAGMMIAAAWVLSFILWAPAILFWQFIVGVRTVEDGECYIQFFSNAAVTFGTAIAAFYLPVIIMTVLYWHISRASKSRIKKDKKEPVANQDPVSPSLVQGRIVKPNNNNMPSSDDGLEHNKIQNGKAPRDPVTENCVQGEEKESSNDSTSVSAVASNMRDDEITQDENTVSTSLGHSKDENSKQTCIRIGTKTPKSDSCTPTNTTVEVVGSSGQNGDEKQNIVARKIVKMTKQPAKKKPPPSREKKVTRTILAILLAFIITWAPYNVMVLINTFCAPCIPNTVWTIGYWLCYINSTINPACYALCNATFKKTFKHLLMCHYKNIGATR

[7] = target: T3, Alpha-2A adrenergic receptor (Homo sapiens, UniProt P08913); assay type: functional, cell-based
T3 sequence (P08913 whole entry): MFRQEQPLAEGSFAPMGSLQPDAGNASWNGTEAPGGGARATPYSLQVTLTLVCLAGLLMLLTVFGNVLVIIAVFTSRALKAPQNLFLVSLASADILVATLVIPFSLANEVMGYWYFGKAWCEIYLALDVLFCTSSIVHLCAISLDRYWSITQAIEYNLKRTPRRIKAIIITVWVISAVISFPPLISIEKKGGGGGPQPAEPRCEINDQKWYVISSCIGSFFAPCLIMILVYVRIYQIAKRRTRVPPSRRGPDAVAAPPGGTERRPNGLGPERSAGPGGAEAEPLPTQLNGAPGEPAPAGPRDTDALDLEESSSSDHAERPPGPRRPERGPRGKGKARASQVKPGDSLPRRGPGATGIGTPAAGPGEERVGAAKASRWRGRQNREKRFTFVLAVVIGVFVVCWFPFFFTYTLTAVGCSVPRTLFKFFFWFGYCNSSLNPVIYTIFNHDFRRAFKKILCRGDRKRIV

[8] = target: T4, Alpha-2C adrenergic receptor (Homo sapiens, UniProt P18825); assay type: functional
T4 sequence (P18825 whole entry): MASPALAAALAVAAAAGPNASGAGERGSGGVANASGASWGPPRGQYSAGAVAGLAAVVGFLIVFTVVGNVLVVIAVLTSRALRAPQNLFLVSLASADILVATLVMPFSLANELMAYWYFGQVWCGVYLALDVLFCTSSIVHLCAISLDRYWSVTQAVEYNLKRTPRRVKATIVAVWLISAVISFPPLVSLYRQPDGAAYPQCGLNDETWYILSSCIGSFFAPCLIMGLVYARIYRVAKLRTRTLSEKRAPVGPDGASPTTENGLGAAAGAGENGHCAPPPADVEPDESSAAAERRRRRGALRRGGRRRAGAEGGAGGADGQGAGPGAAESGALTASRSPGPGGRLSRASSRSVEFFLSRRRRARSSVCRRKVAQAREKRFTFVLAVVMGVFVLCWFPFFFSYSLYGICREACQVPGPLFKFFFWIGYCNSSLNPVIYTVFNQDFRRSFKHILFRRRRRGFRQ

Adenosine receptor A3 = target: T5, Adenosine receptor A3 (Homo sapiens, UniProt P0DMS8)
T5 sequence (P0DMS8 whole entry): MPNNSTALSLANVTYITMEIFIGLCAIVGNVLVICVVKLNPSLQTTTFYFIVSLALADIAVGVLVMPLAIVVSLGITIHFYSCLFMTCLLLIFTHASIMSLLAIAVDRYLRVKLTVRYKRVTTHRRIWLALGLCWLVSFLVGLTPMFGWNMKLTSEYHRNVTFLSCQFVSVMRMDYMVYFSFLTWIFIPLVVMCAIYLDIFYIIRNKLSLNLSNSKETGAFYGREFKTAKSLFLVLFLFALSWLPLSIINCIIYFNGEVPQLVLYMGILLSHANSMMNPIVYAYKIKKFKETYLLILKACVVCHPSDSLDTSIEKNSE

[9] = target: cGMP-inhibited 3',5'-cyclic phosphodiesterase 3A (Homo sapiens, UniProt Q14432); assay type: functional
Motilin receptor = Motilin receptor (Homo sapiens, UniProt O43193)
D(1A) dopamine receptor = D(1A) dopamine receptor (Homo sapiens, UniProt P21728); assay type: functional, cell-based
[10] = target: 3',5'-cyclic-AMP phosphodiesterase 4D (Homo sapiens, UniProt Q08499); assay type: functional
Further: assay procedure not described here.

Chain of Bile salt export pump (O95342 whole entry): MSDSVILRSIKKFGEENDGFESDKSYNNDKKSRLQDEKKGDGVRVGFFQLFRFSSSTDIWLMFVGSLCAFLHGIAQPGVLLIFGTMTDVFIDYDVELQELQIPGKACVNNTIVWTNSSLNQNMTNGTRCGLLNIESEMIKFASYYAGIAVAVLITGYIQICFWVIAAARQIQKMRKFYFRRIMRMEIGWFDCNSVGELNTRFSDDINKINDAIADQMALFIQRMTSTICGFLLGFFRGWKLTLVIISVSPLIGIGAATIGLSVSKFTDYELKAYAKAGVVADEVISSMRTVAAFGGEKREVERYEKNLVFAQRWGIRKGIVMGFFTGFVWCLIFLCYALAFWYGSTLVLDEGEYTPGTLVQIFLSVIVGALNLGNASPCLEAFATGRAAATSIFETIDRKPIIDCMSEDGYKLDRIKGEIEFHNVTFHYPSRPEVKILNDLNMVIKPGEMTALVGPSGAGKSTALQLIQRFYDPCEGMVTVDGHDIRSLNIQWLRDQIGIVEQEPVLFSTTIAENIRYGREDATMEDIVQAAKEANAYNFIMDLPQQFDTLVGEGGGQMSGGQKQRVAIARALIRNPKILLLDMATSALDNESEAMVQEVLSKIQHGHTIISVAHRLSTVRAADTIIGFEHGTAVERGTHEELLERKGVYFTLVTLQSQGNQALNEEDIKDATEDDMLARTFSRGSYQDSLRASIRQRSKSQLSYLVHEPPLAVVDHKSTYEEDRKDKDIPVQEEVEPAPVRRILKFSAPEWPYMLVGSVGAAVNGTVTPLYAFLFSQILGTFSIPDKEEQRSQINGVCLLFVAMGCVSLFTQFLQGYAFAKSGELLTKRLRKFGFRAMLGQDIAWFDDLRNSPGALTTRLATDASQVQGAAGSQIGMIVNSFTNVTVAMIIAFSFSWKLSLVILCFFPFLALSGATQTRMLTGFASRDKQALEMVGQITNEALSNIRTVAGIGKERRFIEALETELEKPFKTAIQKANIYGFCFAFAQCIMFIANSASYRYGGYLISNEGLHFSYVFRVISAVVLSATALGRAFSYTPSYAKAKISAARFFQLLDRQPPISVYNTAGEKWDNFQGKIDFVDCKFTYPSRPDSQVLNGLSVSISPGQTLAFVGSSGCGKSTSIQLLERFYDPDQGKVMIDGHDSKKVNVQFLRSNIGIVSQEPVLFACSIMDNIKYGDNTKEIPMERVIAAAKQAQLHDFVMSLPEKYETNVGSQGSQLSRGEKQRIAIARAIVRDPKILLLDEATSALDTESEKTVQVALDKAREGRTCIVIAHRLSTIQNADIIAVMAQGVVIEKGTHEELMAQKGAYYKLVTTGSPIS
Chain of Motilin receptor (O43193 whole entry): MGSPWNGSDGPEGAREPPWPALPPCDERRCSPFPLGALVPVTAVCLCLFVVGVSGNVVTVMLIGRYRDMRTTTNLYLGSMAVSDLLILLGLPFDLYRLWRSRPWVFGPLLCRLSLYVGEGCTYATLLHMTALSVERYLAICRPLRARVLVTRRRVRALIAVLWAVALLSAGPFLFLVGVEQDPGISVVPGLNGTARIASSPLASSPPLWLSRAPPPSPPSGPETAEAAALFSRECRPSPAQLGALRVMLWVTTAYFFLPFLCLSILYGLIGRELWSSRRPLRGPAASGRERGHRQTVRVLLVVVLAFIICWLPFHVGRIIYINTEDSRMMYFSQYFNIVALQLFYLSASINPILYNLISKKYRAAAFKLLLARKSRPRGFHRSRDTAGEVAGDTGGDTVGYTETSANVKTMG
Chain of Sodium-dependent dopamine transporter (Q01959 whole entry): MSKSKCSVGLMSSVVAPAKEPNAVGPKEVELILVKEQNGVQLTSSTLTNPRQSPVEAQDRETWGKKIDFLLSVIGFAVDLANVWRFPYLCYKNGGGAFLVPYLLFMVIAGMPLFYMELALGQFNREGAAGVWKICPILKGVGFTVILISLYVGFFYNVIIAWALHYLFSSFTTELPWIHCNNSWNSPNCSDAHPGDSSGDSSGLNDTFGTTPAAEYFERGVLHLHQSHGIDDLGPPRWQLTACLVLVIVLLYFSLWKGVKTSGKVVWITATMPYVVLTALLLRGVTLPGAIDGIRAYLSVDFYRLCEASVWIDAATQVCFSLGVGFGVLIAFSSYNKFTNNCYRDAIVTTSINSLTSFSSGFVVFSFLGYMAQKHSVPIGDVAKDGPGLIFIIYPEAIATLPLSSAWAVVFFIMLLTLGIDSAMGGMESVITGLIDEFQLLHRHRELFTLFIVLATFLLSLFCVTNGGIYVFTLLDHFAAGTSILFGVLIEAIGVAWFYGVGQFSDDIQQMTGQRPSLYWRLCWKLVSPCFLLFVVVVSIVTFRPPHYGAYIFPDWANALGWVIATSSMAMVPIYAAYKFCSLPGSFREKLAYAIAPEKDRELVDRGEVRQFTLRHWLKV
Chain of 5-hydroxytryptamine receptor 2B (P41595 whole entry): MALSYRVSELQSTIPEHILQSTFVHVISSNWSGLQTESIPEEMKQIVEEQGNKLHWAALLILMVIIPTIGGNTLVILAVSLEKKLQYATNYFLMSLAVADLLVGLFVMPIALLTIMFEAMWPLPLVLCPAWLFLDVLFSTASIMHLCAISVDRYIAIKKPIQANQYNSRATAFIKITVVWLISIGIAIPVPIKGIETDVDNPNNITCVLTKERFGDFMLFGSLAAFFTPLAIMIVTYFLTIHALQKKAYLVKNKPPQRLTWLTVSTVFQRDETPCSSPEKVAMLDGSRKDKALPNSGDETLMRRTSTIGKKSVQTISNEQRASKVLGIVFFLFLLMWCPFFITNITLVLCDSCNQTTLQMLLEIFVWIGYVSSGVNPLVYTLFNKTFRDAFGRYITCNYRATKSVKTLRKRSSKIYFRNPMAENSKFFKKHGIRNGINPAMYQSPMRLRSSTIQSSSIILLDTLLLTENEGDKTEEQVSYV
Chain of 3',5'-cyclic-AMP phosphodiesterase 4D (Q08499 whole entry): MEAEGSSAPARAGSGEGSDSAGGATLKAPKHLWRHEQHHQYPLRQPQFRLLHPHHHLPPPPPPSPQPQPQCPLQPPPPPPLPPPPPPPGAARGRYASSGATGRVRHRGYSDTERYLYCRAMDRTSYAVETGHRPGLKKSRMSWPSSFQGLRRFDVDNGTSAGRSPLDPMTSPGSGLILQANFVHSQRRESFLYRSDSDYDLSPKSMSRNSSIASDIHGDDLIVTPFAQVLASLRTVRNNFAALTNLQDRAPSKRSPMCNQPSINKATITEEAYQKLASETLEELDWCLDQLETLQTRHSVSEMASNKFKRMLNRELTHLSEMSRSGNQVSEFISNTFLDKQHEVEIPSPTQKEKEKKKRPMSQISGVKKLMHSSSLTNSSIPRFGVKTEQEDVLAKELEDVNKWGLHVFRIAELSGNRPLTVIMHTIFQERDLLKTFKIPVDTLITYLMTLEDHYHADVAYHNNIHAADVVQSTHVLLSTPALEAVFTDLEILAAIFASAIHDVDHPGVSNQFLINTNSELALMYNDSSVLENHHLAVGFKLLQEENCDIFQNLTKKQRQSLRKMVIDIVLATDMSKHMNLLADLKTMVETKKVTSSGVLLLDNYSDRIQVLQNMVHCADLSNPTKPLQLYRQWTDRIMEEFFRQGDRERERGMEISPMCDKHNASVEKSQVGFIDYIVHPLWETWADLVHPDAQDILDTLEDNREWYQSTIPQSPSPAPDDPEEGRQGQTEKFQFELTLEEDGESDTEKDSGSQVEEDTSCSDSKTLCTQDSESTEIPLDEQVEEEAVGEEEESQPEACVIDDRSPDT
Chain of Delta-type opioid receptor (P41143 whole entry): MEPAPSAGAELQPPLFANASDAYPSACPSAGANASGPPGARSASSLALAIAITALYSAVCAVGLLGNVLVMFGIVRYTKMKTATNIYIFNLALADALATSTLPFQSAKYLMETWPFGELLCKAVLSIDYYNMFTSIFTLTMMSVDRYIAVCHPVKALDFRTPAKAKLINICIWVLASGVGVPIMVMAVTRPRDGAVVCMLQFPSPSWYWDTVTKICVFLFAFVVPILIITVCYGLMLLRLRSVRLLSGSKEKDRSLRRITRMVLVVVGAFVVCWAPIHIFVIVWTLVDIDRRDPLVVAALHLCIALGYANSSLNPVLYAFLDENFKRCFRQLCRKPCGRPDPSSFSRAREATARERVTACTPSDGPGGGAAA
Chain of D(1A) dopamine receptor (P21728 whole entry): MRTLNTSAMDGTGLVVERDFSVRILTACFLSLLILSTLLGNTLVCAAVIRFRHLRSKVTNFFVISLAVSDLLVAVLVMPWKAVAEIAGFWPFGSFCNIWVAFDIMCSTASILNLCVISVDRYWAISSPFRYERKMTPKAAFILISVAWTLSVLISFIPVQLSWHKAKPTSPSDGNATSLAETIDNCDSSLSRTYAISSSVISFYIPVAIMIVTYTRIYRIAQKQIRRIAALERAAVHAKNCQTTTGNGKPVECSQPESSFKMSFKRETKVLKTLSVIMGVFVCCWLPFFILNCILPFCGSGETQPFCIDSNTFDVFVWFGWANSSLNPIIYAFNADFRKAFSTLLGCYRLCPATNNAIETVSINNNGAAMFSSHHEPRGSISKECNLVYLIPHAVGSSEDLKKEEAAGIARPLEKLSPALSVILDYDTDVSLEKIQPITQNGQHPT

Sc1ncnc2nc[nH]c12 [MERCAPTOPURINE ANHYDROUS]
AC50 (Bile salt export pump): > 300 µM
AC50 [1]: > 30 µM

Cc1cc(O)cc(C)c1Cl [CHLOROXYLENOL]
AC50 (Bile salt export pump): > 300 µM
AC50 [1]: > 30 µM

O=C1c2ccccc2C(=O)C1C(=O)C(c1ccccc1)c1ccccc1 [DIPHENADIONE]
AC50 [1]: > 30 µM

CCO/N=C(\C(=O)N[C@@H]1C(=O)N2C(C(=O)[O-])=C(Sc3nc(-c4cc[n+](C)cc4)cs3)CS[C@H]12)c1nsc(N)n1 [CEFTAROLINE]
AC50 [1]: 26 µM

CN(C)CCCN1c2ccccc2CCc2ccc(Cl)cc21 [CLOMIPRAMINE]
AC50 [2]: > 30 µM
AC50 [3]: > 30 µM
AC50 [4]: > 10 µM
AC50 [5]: 14.6 µM
AC50 [6]: > 10 µM
AC50 [7]: > 10 µM

Cc1c(-c2ccccc2)oc2c(C(=O)OCCN3CCCCC3)cccc2c1=O [FLAVOXATE]
AC50 (Bile salt export pump): 220 µM
AC50 [1]: 3.8 µM

CC(C)C(=O)Nc1ccc([N+](=O)[O-])c(C(F)(F)F)c1 [FLUTAMIDE]
AC50 [2]: > 30 µM
AC50 [3]: > 30 µM
AC50 [8]: > 10 µM
AC50 [4]: > 10 µM
AC50 [5]: > 10 µM
AC50 [6]: > 10 µM
AC50 (Adenosine receptor A3): > 30 µM
AC50 [9]: > 10 µM
AC50 [7]: > 10 µM
AC50 [1]: 2.53 µM
AC50 (Motilin receptor): > 30 µM
AC50 (D(1A) dopamine receptor): > 30 µM
AC50 [10]: > 30 µM

O=C1CC[C@@]2(O)[C@H]3Cc4ccc(O)c5c4[C@@]2(CCN3CC2CC2)[C@H]1O5 [NALTREXONE]
AC50 (Bile salt export pump): > 300 µM
AC50 [1]: > 30 µM

CCC(=O)c1c(O)cc(O)cc1O [FLOPROPIONE]
AC50 [1]: > 30 µM

CC(=O)OC[C@H]1O[C@@H](n2ccc(=O)[nH]c2=O)[C@H](OC(C)=O)[C@@H]1OC(C)=O [URIDINE TRIACETATE]
AC50 (Bile salt export pump): > 300 µM
AC50 [1]: > 30 µM

CC(N/C(=N\C#N)Nc1ccncc1)C(C)(C)C (stereo not given) [PINACIDIL ANHYDROUS]
AC50 (Bile salt export pump): 290 µM
AC50 [1]: > 30 µM

CCc1nn(CCCN2CCN(c3cccc(Cl)c3)CC2)c(=O)n1CCOc1ccccc1 [NEFAZODONE]
AC50 (Bile salt export pump): 6 µM
AC50 [2]: > 10 µM
AC50 [3]: > 10 µM
AC50 [8]: 0.63 µM
AC50 [4]: > 10 µM
AC50 (Adenosine receptor A3): 11.9 µM
AC50 [9]: > 10 µM
AC50 [1]: 0.89 µM
AC50 (Motilin receptor): > 10 µM
AC50 [10]: > 10 µM

Cc1cc2c(cc1CC(=O)c1sccc1S(=O)(=O)Nc1onc(C)c1Cl)OCO2 [SITAXENTAN]
AC50 (Bile salt export pump): 9.7 µM

O=C1[C@H](CC[C@H](O)c2ccc(F)cc2)[C@@H](c2ccc(O)cc2)N1c1ccc(F)cc1 [EZETIMIBE]
AC50 [1]: 16 µM

Cc1ccc(O)c2ncccc12 [TILIQUINOL]
AC50 [1]: > 30 µM

OCCN1CCN(CCCN2c3ccccc3C=Cc3ccccc32)CC1 [OPIPRAMOL]
AC50 [2]: > 30 µM
AC50 [3]: > 30 µM
AC50 [8]: 6.7 µM
AC50 [4]: > 30 µM
AC50 [5]: > 30 µM
AC50 [6]: > 30 µM
AC50 (Adenosine receptor A3): > 30 µM
AC50 [9]: > 30 µM
AC50 [7]: > 30 µM
AC50 [1]: 14 µM
AC50 (Motilin receptor): > 30 µM
AC50 (D(1A) dopamine receptor): > 30 µM
AC50 [10]: > 30 µM
